Assay results as given in patent US8389677B2, “Antioxidant polypeptide and a process for isolation and purification of the same” (Adichunchanagiri Biotechnology and Cancer Research Institute, priority 2010, dated 2013).

What was measured:
[1] = test system: lipid peroxidation; assay: Thio Barbituric Acid Reactive Substance (TBARS) antioxidant assay; type: biochemical; conditions: concentration 400 μM
Description: (§1) ATE containing 2 mg protein was loaded on to the Sephadex G-50 column (VT=240 ml, VO=80 ml) and eluted with 0.1M Tris HCl, pH −7.4 containing 0.1 M NaCl and flow rate was 1.7 ml/5 min, Fractions were monitored at 280 nm. Two peaks were obtained namely Peak I and Peak II. Peak II depicts the polypeptide of the present invention (Arishinin) as shown in FIG. 1 and the Gel filtration chromatography profile of Aqueous Turmeric Extract. Peak II was pooled, concentrated and dialyzed against double distilled water at 4° C. using 2 KDa cut off dialysis membrane for 74 hrs. […] The antioxidant activity was done by TBARS and Hydroxy radical scavenging assay compared to standard antioxidant like BHA, Curcumin and α-tocopherol as positive controls. Cell viability test by Tryphan blue exclusion method was done to test the toxicity of Arishinin.
(§2) The quantification of water-soluble antioxidant polypeptide Arishinin, isolated by the process described in Examples 1 to 4 (as depicted in Table 1 above) was determined by the following methods. Protein estimation was done by Bradford's method (Bradford, M. M., 1976, Analytical Biochem., […]) with an absorption maximum at 595 nm and results shown in Table 1. The antioxidant activity of Arishinin was evaluated by Thio Barbituric Acid Reactive Substance (TBARS) (Shimasaki, H., et al., 1984, Biochem. Biophys. Acta, 792:123-129) and Deoxyribose method/Hydroxyl radical scavenging assay (Halliwell, B., et al., 1981, Methods of Biochemical Sciences, 33:59-90) with absorption maximum at 535 nm by using BHA, alpha tocopherol and Curcumin as standard antioxidants.

[2] = test system: hydroxyl radical; assay: Deoxyribose method / Hydroxyl radical scavenging assay; type: biochemical; conditions: concentration 400 μM
Description: as §1, §2

[3] = test system: mice; conditions: at more than 0.1% dose; cited from earlier work

Structure (SMILES)	INHIBITION (%) TBARS [1] [%]	INHIBITION (%) Hydroxyl radical [2] [%]	carcinogenicity (fore-stomach tumour in mice) [3]
COc1ccc(O)c(C(C)(C)C)c1 [BHA, Butylated Hydroxyl Anisole]	84 ± 1.5	80 ± 1	carcinogenic
Cc1c(C)c2c(c(C)c1O)CC[C@@](C)(CCC[C@H](C)CCC[C@H](C)CCCC(C)C)O2 [α-tocopherol]	92 ± 1	88 ± 2	–
COc1cc(/C=C/C(=O)CC(=O)/C=C/c2ccc(O)c(OC)c2)ccc1O [Curcumin]	72 ± 1.5	68 ± 3	–
Cc1cc(C(C)(C)C)c(O)c(C(C)(C)C)c1 [BHT, Butylated Hydroxy Toluene]	–	–	carcinogenic
